{
  "source": "patent US7064206B1",
  "about": "(University of Kentucky Research Foundation, priority 2003, dated 2006)",
  "key": {"[1]": {"experiment": "Non-enzymatic decomposition of the glycinate ester prodrug at physiological pH", "assay_type": "physicochemical", "details": "pH of 7 or above", "text": "4 arose by a competitive intermolecular reaction to the lactam intermediate and reacted to release both 5 and 6."}, "[2]": {"biological_target": "T1, topoisomerase I cleavage complexes (Homo sapiens, UniProt P11387)", "T1 sequence (P11387 1-765)": "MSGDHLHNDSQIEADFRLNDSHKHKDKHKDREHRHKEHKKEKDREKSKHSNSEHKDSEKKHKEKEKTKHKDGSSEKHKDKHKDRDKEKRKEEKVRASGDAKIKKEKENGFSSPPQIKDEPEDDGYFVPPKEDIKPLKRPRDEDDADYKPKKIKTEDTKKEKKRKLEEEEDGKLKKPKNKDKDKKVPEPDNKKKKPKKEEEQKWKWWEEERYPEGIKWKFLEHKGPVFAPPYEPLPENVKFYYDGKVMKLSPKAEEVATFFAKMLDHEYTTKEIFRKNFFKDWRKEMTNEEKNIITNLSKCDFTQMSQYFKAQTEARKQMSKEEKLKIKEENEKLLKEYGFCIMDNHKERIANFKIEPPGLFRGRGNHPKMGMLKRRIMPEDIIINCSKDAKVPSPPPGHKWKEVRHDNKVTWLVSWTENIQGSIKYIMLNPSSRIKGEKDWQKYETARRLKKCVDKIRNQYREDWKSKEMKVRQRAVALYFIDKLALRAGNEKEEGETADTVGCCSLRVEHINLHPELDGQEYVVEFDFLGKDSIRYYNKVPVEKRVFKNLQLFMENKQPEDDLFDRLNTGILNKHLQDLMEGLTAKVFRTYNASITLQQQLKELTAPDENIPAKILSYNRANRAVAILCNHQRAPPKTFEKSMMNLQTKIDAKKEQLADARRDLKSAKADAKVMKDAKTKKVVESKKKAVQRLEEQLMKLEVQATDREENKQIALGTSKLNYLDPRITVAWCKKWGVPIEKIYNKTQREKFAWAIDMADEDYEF", "details": "cell-free; vs camptothecin or SN-38; cited from earlier work"}, "[3]": {"details": "human blood, cited from earlier work"}, "human glioma": {"tested_on": "human glioma", "details": "murine model; cited from earlier work"}, "[4]": {"biological_target": "human serum albumin (HSA) (Homo sapiens, UniProt P02768)", "sequence (P02768 25-609)": "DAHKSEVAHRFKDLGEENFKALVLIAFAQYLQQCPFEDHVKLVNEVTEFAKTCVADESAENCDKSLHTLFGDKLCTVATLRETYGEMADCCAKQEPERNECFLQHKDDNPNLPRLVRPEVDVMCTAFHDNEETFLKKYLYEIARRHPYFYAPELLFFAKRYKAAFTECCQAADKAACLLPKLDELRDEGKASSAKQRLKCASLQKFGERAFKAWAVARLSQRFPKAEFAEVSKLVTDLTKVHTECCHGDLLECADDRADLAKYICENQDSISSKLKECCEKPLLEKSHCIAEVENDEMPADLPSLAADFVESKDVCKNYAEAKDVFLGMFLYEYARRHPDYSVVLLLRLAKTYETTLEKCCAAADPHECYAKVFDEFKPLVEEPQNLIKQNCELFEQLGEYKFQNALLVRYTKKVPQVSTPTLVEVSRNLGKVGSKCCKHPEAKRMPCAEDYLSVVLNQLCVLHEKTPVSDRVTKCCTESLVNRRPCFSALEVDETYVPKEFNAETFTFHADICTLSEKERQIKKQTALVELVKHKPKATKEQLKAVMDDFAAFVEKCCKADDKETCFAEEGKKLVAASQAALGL", "details": "cited from earlier work"}, "[5]": {"experiment": "Stability of free and liposomal prodrug in whole blood"}},
  "data": [
    {"compound": "CC[C@@]1(OC(=O)CN)C(=O)OCc2c1cc1n(c2=O)Cc2c-1nc1ccc(O)cc1c2[Si](C)(C)C(C)(C)C", "note": "[DB-67 20(S)-glycinate ester]", "values": [
      {"measurement": "decomposition at physiological pH", "setting": "[1]", "value": "rapid and convenient non-enzymatic decomposition process that releases active DB-67"}
    ]},
    {"compound": "CC[C@@]1(O)C(=O)OCc2c1cc1n(c2=O)Cc2c-1nc1ccc(O)cc1c2[Si](C)(C)C(C)(C)C", "note": "[DB-67, 7-t-butyldimethylsilyl-10-hydroxycamptothecin]", "values": [
      {"measurement": "stability of topoisomerase I cleavage complexes", "setting": "[2]", "value": "more stable topoisomerase I cleavage complexes than camptothecin or SN-38"},
      {"measurement": "% lactone at equilibrium", "setting": "[3]", "value": 30, "unit": "%"},
      {"measurement": "t1/2", "setting": "[3]; lactone hydrolysis", "value": 2.17, "unit": "h"},
      {"measurement": "activity against human glioma", "setting": "human glioma", "value": "display activity against human glioma"},
      {"measurement": "association of carboxylate form with the high affinity carboxylate binding pocket on HSA", "setting": "[4]", "value": "blocks the associations"}
    ]},
    {"compound": "CCc1c2c(nc3ccc(O)cc13)-c1cc3c(c(=O)n1C2)COC(=O)[C@]3(O)CC", "note": "[SN-38]", "values": [
      {"measurement": "association of carboxylate form with the high affinity carboxylate binding pocket on HSA", "setting": "[4]", "value": "block SN-38 from associating"}
    ]},
    {"compound": "Camptothecin", "values": [
      {"measurement": "affinity of lactone form for HSA", "setting": "[4]; lactone form", "value": "moderate affinity"}
    ]},
    {"compound": "DB-67 4-aminobutanoate ester", "values": [
      {"measurement": "decomposition of free prodrug", "setting": "[5]", "value": "extensive"}
    ]}
  ]
}
